From patent US7902394B2, “Calcilytic compounds” (GlaxoSmithKline LLC, priority 2006, dated 2011)

Experiments:
human calcium receptor = biological target: T1, human calcium receptor (Homo sapiens, UniProt P41180); experiment: Calcium Receptor Inhibitor Assay (block of intracellular Ca2+ increase elicited by extracellular Ca2+, fluo-3); type: cell-based; conditions: HEK 293 4.0-7 cells stably expressing the human calcium receptor; 10 uM was the limit of the assay; read-out: IC50 for blocking increases of intracellular Ca2+ elicited by extracellular Ca2+
T1 construct: expressed in transfected cells; host or cells: HEK 293 4.0-7
T1 sequence (P41180 20-1078): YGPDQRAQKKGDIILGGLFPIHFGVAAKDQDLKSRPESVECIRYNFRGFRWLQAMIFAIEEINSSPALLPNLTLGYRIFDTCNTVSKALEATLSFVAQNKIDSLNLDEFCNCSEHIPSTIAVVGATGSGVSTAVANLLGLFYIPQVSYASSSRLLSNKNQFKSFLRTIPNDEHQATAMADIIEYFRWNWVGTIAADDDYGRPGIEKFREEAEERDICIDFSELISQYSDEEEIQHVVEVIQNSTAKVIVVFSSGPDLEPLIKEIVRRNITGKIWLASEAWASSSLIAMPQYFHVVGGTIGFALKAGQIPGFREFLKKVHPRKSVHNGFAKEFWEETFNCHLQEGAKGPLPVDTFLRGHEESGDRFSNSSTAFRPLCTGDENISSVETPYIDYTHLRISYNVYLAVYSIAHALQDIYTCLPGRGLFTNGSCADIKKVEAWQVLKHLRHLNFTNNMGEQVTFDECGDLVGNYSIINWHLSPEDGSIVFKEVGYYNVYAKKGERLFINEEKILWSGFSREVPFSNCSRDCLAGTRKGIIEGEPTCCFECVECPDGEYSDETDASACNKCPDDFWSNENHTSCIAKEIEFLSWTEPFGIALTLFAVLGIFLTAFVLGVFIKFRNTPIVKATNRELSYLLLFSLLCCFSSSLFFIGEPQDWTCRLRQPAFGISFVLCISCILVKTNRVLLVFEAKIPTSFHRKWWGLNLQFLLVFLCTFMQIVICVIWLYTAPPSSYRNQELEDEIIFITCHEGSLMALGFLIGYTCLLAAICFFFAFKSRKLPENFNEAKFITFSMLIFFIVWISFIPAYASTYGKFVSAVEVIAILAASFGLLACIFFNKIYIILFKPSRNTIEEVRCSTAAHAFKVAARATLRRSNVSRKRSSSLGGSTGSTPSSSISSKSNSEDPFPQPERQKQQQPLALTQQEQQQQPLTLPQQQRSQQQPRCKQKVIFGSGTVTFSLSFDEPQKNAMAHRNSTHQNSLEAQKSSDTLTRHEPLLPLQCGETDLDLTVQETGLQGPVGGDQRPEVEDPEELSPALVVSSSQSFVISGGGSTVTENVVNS
Procedure: Calcilytic activity was measured by determining the IC50 of the test compound for blocking increases of intracellular Ca^2+ elicited by extracellular Ca^2+ in HEK 293 4.0-7 cells stably expressing the human calcium receptor. HEK 293 4.0-7 cells were constructed as described by Rogers et al., J. Bone Miner. Res. 10 Suppl. 1:S483, 1995 (hereby incorporated by reference to the extent required to conduct the present assay). Intracellular Ca^2+ increases were elicited by increasing extracellular Ca^2+ from 1 to 1.75 mM. Intracellular Ca^2+ was measured using fluo-3, a fluorescent calcium indicator.
Cells were maintained in T-150 flasks in selection media (DMEM supplemented with 10% fetal bovine serum and 200 ug/mL hygromycin B), under 5% CO2:95% air at 37° C. and were grown up to 90% confluency. The medium was decanted and the cell monolayer was washed twice with phosphate-buffered saline (PBS) kept at 37° C. After the second wash, 6 mL of 0.02% EDTA in PBS was added and incubated for 4 minutes at 37° C. Following the incubation, cells were dispersed by gentle agitation. Cells from 2 or 3 flasks were pooled and pelleted (100×g). The cellular pellet was resuspended in 10-15 mL of SPF-PCB+ and pelleted again by centrifugation. This washing was done twice.
Sulfate- and phosphate-free parathyroid cell buffer (SPF-PCB) contained 20 mM Na-Hepes, pH 7.4, 126 mM NaCl, 5 mM KCl, and 1 mM MgCl2. SPF-PCB was made up and stored at 4° C. On the day of use, SPF-PCB was supplemented with 1 mg/mL of D-glucose and 1 mM CaCl2 and then split into two fractions. To one fraction, bovine serum albumin (BSA; fraction V, ICN) was added at 5 mg/mL (SPF-PCB+). This buffer was used for washing, loading and maintaining the cells. The BSA-free fraction was used for diluting the cells in the cuvette for measurements of fluorescence.
The pellet was resuspended in 10 mL of SPF-PCB+ containing 2.2 uM fluo-3 (Molecular Probes) and incubated at room temperature for 35 minutes. Following the incubation period, the cells were pelleted by centrifugation. The resulting pellet was washed with SPF-PCB+. After this washing, cells were resuspended in SPF-PCB+ at a density of 1-2×10^6 cells/mL.
For recording fluorescent signals, 300 uL of cell suspension were diluted in 1.2 mL of SPF buffer containing 1 mM CaCl2 and 1 mg/mL of D-glucose. Measurements of fluorescence were performed at 37° C. with constant stirring using a spectrofluorimeter. Excitation and emission wavelengths were measured at 485 and 535 nm, respectively. To calibrate fluorescence signals, digitonin (5 mg/mL in ethanol) was added to obtain Fmax, and the apparent Fmin was determined by adding Tris-EGTA (2.5 M Tris-Base, 0.3 M EGTA). The concentration of intracellular calcium was calculated using the following equation: Intracellular calcium=[…]; where Kd=400 nM.
To determine the potential calcilytic activity of test compounds, cells were incubated with test compound (or vehicle as a control) for 90 seconds before increasing the concentration of extracellular Ca^2+ from 1 to 2 mM. Calcilytic compounds were detected by their ability to block, in a concentration-dependent manner, increases in the concentration of intracellular Ca^2+ elicited by extracellular Ca^2+.

[1] = biological target: T2, Human Parathyroid Calcium Receptor (“HuPCaR”) (Homo sapiens, UniProt P41180); experiment: Calcium Receptor Binding Assay (3H ligand displacement, HEK 293 4.0-7 membranes); conditions: 2 nM 3H compound, 4° C. 30 min, 10 uM was the limit of the assay
T2 construct: expressed in transfected cells; host or cells: HEK 293 4.0-7 (plasma membrane preparation)
T2 sequence (P41180 20-1078): T1 sequence (P41180 20-1078)
Procedure: HEK 293 4.0-7 cells stably transfected with the Human Parathyroid Calcium Receptor (“HuPCaR”) were scaled up in T180 tissue culture flasks. Plasma membrane was obtained by polytron homogenization or glass douncing in buffer (50 mM Tris-HCl pH 7.4, 1 mM EDTA, 3 mM MgCl2) in the presence of a protease inhibitor cocktail containing 1 uM Leupeptin, 0.04 uM Pepstatin, and 1 mM PMSF. Aliquoted membrane was snap frozen and stored at −80° C. ^3H labeled compound was radiolabeled to a radiospecific activity of 44 Ci/mmole and was aliquoted and stored in liquid nitrogen for radiochemical stability.
A typical reaction mixture contained 2 nM ^3H compound ((R,R)—N-4′-Methoxy-t-3-3′-methyl-1′-ethylphenyl-1-(1-naphthyl)ethylamine), or ^3H compound (R)—N-[2-Hydroxy-3-(3-chloro-2-cyanophenoxy)propyl]-1,1-dimethyl-2-(4-methoxyphenyl)ethylamine with 4-10 ug membrane in homogenization buffer containing 0.1% gelatin and 10% EtOH in a reaction volume of 0.5 mL. Incubation was performed in 12×75 polyethylene tubes in an ice water bath. To each tube 25 uL of test sample in 100% EtOH was added, followed by 400 uL of cold incubation buffer, and 25 uL of 40 nM ^3H-compound in 100% EtOH for a final concentration of 2 nM. The binding reaction was initiated by the addition of 50 uL of 80-200 ug/mL HEK 293 4.0-7 membrane diluted in incubation buffer, and allowed to incubate at 4° C. for 30 min. Wash buffer was 50 mM Tris-HCl containing 0.1% PEI. Nonspecific binding was determined by the addition of 100-fold excess of unlabeled homologous ligand, and was generally 20% of total binding. The binding reaction was terminated by rapid filtration onto 1% PEI pretreated GF/C filters using a Brandel Harvestor. Filters were placed in scintillation fluid and radioactivity assessed by liquid scintillation counting.

| IC50 (human calcium receptor) [µM] | IC50 [1] [µM] | SMILES |
| --- | --- | --- |
| > 10 |  | Cc1ccc(CC(C)(C)NC[C@@H](O)c2cc(CCC(=O)O)cc(F)c2F)s1 [Example 16, 3-[3-((1S)-2-{[1,1-dimethyl-2-(5-methyl-2-thienyl)ethyl]amino}-1-hydroxyethyl)-4,5-difluorophenyl]propanoic acid] |
| > 10 |  | CC(C)(Cc1ccc(Cl)s1)NC[C@@H](O)c1cc(CCC(=O)O)cc(F)c1F [Example 24, 3-[3-((1S)-2-{[2-(5-chloro-2-thienyl)-1,1-dimethylethyl]amino}-1-hydroxyethyl)-4,5-difluorophenyl]propanoic acid] |
|  | > 10 | CC(C)(Cc1ccccc1)NC[C@@H](O)c1cc(CCC(=O)O)cc(F)c1F [Example 13, 3-(3-{(1S)-2-[(1,1-dimethyl-2-phenylethyl)amino]-1-hydroxyethyl}-4,5-difluorophenyl)propanoic acid] |
| > 10 |  | CSc1ccc(CC(C)(C)NC[C@@H](O)c2cc(CCC(=O)O)cc(F)c2F)cc1 [Example 19, 3-{3-[(1S)-2-({1,1-dimethyl-2-[4-(methylthio)phenyl]ethyl}amino)-1-hydroxyethyl]-4,5-difluorophenyl}propanoic acid] |
| > 10 |  | Cc1ccc(CC(C)(C)NC[C@@H](O)c2cc(CCC(=O)O)cc(F)c2F)cc1F [Example 18, 3-[3,4-difluoro-5-((1S)-2-{[2-(3-fluoro-4-methylphenyl)-1,1-dimethylethyl]amino}-1-hydroxyethyl)phenyl]propanoic acid] |
| > 10 | > 10 | COc1ccc(CCC(C)(C)NC[C@@H](O)c2cc(CCC(=O)O)cc(F)c2F)cc1 [Example 17, 3-{3-[(1S)-2-([1,1-dimethyl-3-[4-(methyloxy)phenyl]propyl}amino)-1-hydroxyethyl]-4,5-difluorophenyl]propanoic acid] |
| > 10 |  | CC(C)(CCc1ccccc1)NC[C@@H](O)c1cc(CCC(=O)O)cc(F)c1F [Example 22, 3-(3-{(1S)-2-[(1,1-dimethyl-3-phenylpropyl)amino]-1-hydroxyethyl}-4,5-difluorophenyl)propanoic acid] |
| > 10 |  | CC(C)(Cc1ccc(Br)cc1)NC[C@@H](O)c1cc(CCC(=O)O)cc(F)c1F [Example 23, 3-[3-((1S)-2-{[2-(4-bromophenyl)-1,1-dimethylethyl]amino}-1-hydroxyethyl)-4,5-difluorophenyl]propanoic acid] |
| > 10 | > 10 | CC(C)(Cc1cccs1)NC[C@@H](O)c1cc(CCC(=O)O)cc(F)c1F [Example 21, 3-[3-((1S)-2-{[1,1-dimethyl-2-(2-thienyl)ethyl]amino}-1-hydroxyethyl)-4,5-difluorophenyl]propanoic acid] |
| > 10 |  | CC(C)(Cc1ccc(C(C)(C)C)cc1)NC[C@@H](O)c1cc(CCC(=O)O)cc(F)c1F [Example 20, 3-{3-[(1S)-2-({2-[4-(1,1-dimethylethyl)phenyl]-1,1-dimethylethyl}amino)-1-hydroxyethyl]-4,5-difluorophenyl}propanoic acid] |
